Measurements reported in ChEMBL document CHEMBL3301562, “MMV Box screening against Plasmodium falciparum protein kinases and aminoacyl tRNA synthetases”.

Experiments:
Format in all cases: functional
Proline--tRNA ligase = biological target: T1, Proline--tRNA ligase (Plasmodium falciparum (isolate 3D7), UniProt Q8I5R7); assay: MMV: ProRS recombinant Plasmodium falciparum Prolyl-tRNA-synthetase, assay with yeast tRNA, ATP, and proline and 3 uM MMV malaria box compound, assay read out with kinase glo as % inhibition.
T1 sequence (Q8I5R7 whole entry): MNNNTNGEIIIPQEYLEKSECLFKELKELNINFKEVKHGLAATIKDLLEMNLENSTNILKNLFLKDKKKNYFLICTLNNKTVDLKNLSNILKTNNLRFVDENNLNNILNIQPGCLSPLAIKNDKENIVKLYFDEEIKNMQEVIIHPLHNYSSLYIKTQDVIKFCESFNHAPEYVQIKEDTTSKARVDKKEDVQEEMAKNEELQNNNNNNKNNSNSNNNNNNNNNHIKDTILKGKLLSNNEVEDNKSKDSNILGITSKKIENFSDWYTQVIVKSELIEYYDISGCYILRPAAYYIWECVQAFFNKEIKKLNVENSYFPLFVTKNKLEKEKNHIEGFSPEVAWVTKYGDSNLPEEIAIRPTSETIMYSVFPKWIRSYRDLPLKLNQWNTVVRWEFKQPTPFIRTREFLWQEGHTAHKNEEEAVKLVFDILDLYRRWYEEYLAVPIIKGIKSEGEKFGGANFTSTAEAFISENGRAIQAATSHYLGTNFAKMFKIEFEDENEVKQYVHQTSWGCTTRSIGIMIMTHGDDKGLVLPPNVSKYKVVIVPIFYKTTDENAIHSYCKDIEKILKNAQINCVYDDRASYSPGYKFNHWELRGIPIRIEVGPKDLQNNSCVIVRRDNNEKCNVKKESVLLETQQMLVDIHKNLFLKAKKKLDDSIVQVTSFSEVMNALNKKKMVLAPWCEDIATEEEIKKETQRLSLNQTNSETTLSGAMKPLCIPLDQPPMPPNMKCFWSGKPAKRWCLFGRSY

Lysine--tRNA ligase = Lysine--tRNA ligase (Plasmodium falciparum (isolate 3D7), UniProt Q8IDJ8); assay: MMV: KRS recombinant Plasmodium falciparum Lysyl-tRNA-synthetase, assay with yeast tRNA, ATP, and lysine and 3 uM MMV malaria box compound, assay read out with kinase glo as % inhibition.
Chain of Lysine--tRNA ligase (Q8IDJ8 whole entry): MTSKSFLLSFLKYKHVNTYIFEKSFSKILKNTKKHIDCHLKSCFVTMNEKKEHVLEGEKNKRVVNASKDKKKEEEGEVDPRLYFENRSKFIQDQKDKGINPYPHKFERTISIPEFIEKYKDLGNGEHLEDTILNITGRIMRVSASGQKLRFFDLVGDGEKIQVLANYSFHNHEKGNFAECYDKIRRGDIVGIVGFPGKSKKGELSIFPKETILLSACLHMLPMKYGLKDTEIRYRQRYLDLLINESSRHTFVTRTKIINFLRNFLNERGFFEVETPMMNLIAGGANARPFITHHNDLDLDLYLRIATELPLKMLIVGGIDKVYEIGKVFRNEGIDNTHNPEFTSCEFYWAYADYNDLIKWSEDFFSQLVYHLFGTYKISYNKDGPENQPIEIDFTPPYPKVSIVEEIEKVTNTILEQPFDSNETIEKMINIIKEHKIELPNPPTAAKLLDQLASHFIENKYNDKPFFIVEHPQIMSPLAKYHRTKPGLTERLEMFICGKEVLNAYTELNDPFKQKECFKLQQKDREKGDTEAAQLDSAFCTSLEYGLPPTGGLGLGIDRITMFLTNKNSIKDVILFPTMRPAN

[1] = biological target: T2, Putative uncharacterized protein pk7 (Plasmodium falciparum, UniProt O96214); assay: Final concentrations were 1 uM ATP, 2 mM DTT, 20 mM MgCl2, 2 mM MnCl2, 0.01% BSA, and 6 ug/ml PK7, in a buffer of 20 mM Tris-HCl (pH 7.5). The enzyme itself was the only substrate present (since autophosphorylation occurs); 100 uM 1NA-PP1 was used as a control inhibitor. Incubation time was 3 hours.
T2 sequence (O96214 whole entry): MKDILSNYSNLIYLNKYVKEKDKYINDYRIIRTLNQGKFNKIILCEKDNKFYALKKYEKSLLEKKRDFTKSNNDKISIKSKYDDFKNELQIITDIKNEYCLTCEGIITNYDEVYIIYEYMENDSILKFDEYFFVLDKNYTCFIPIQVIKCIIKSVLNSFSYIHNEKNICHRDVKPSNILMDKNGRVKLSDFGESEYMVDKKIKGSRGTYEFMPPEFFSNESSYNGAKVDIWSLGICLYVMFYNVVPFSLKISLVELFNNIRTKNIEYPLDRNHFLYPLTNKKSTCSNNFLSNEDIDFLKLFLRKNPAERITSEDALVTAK

[2] = biological target: T3, Cdk-related protein kinase 6 (Plasmodium falciparum, UniProt O77239); assay: Final concentrations were 1.5 uM ATP, 5 mM MnCl2, and 15 ug/ml PK6 in a buffer of 100 mM Tris-HCl (pH 7.5). 50 ug/mL MBP was provided as the substrate; 10 uM staurosporine was used as a control inhibitor. Incubation time was 3 hours and 40 minutes.The catalytic activity of each kinase was considered proportional to ATP consumed, as determined from measurements of residual [ATP] with the luciferase-based reagent Kinase-Glo (Promega) following incubation. Luminescence (proportional to residual [ATP]) was measured on the plate readers FLx800 (BioTek Instruments, Winooski, VT, USA) and MicroBeta2.
T3 sequence (O77239 whole entry): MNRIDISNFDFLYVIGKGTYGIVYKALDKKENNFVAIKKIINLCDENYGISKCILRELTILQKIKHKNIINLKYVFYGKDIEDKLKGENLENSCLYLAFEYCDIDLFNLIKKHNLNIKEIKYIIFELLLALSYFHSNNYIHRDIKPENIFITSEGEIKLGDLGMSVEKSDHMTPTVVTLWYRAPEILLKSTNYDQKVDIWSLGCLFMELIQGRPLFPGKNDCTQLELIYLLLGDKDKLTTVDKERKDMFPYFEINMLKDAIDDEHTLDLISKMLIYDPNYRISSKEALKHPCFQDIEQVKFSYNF

[3] = biological target: Calcium-dependent protein kinase 1 (Plasmodium falciparum, UniProt P62344); assay: MMV: CDPK1 Protein kinase inhibition assay using recombinant PfCDPK1, syntide 2 peptide substrate, ATP and KinaseGlo to measure % inhibition at 1 uM MMV box compound.
Chain of Calcium-dependent protein kinase 1 (P62344 whole entry): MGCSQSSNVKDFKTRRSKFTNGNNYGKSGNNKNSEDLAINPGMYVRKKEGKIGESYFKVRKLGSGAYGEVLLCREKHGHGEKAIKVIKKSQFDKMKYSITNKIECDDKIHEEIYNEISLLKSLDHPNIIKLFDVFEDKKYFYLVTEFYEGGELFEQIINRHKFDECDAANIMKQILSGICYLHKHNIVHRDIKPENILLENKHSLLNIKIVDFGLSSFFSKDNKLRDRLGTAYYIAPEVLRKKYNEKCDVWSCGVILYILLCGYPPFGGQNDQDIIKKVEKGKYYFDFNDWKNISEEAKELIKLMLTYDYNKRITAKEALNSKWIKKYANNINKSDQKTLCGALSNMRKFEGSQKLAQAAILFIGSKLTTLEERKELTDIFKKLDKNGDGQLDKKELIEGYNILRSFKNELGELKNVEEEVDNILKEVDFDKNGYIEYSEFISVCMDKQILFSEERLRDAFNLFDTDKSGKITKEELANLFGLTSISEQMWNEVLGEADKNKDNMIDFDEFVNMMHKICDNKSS

[4] = biological target: T4, Mitogen-activated protein kinase (Plasmodium falciparum, UniProt Q25917); assay: Final concentrations were 1 uM ATP, 0.5 mM DTT, 1 mM MgCl2, 0.5 mg/mL BSA, and 10 ug/ml MAP2 in a buffer of 50 mM HEPES (pH 7.0). 0.5 mg/mL histone III-S served as the substrate (13); 100 uM AMP-PNP, an ATP analog, was used as a control inhibitor. Incubation time was 4 hours.
T4 sequence (Q25917 whole entry): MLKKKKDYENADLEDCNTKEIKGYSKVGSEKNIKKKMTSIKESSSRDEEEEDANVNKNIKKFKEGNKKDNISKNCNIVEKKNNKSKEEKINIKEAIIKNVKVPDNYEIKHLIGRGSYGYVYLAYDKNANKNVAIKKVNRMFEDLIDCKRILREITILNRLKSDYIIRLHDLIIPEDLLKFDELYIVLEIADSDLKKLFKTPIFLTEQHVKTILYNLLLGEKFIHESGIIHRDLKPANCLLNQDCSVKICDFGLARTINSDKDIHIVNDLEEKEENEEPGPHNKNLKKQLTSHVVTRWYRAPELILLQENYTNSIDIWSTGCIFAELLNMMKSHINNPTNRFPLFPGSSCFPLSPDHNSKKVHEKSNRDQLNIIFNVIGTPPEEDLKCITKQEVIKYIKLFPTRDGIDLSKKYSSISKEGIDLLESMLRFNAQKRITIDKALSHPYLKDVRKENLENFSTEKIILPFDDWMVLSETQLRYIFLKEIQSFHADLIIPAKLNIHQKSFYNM

[5] = biological target: T5, Calcium-dependent protein kinase 4 (Plasmodium falciparum (isolate 3D7), UniProt Q8IBS5); assay: MMV: CDPK4 Protein kinase inhibition assay using recombinant PfCDPK4, syntide2 peptide substrate, ATP and KinaseGlo to measure % inhibition at 1 uM MMV box compound.
T5 sequence (Q8IBS5 whole entry): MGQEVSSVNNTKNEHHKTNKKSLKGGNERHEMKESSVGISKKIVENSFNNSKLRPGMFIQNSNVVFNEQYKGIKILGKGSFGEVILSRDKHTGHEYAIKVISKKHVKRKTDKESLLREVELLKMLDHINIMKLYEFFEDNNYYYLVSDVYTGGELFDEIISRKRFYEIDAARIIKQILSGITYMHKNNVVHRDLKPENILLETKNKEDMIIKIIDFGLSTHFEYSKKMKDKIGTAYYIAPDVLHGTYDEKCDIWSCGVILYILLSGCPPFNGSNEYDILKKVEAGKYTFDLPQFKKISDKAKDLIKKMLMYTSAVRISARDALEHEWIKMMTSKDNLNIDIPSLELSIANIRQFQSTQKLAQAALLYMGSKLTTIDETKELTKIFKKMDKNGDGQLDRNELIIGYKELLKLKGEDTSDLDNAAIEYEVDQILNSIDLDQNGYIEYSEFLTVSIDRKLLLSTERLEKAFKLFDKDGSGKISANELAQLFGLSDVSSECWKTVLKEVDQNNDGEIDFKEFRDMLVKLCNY

## O=C(c1ccccc1F)N(Cc1ccc(Cl)cc1)c1ccccn1
Proline--tRNA ligase
  IC50: > 2500 nM
Lysine--tRNA ligase
  IC50: > 2500 nM
[1]
  IC50: > 1000 nM
[2]
  IC50: > 1000 nM
[3]
  IC50: > 1000 nM
[4]
  IC50: > 1000 nM
[5]
  IC50: > 1000 nM

## CCOC(=O)c1cnc2ccc(OC)cc2c1Nc1ccc(N2CCN(C)CC2)cc1
Proline--tRNA ligase
  IC50: > 2500 nM
Lysine--tRNA ligase
  IC50: > 2500 nM
[1]
  IC50: > 1000 nM
[2]
  IC50: > 1000 nM
[3]
  IC50: > 1000 nM
[4]
  IC50: > 1000 nM
[5]
  IC50: > 1000 nM

## O=C(Nc1ccc(F)c(Cl)c1)Nc1ccc(Cl)c(Cl)c1
Proline--tRNA ligase
  IC50: > 2500 nM
Lysine--tRNA ligase
  IC50: > 2500 nM
[1]
  IC50: > 1000 nM
[2]
  IC50: > 1000 nM
[3]
  IC50: > 1000 nM
[4]
  IC50: > 1000 nM
[5]
  IC50: > 1000 nM

## Cc1cc(C=C2SC(=Nc3ccccc3)N(C3CCCC3)C2=O)c(C)n1-c1ccc(Cl)cc1
Proline--tRNA ligase
  IC50: > 2500 nM
Lysine--tRNA ligase
  IC50: > 2500 nM
[1]
  IC50: > 1000 nM
[2]
  IC50: > 1000 nM
[3]
  IC50: > 1000 nM
[4]
  IC50: > 1000 nM
[5]
  IC50: > 1000 nM

## O=C(NC1CCCCC1)C(c1cccs1)N(CCc1ccccc1)C(=O)c1ccco1 (stereo not given)
Proline--tRNA ligase
  IC50: > 2500 nM
Lysine--tRNA ligase
  IC50: > 2500 nM
[1]
  IC50: > 1000 nM
[2]
  IC50: > 1000 nM
[3]
  IC50: > 1000 nM
[4]
  IC50: > 1000 nM
[5]
  IC50: > 1000 nM

## CCCc1c(C)nc2ccc(Br)cc2c1O
Proline--tRNA ligase
  IC50: > 2500 nM
Lysine--tRNA ligase
  IC50: > 2500 nM
[1]
  IC50: > 1000 nM
[2]
  IC50: > 1000 nM
[3]
  IC50: > 1000 nM
[4]
  IC50: > 1000 nM
[5]
  IC50: > 1000 nM

## Cc1ccccc1OCCSc1nc2ccc(NC(=O)c3cccs3)cc2s1
Proline--tRNA ligase
  IC50: > 2500 nM
Lysine--tRNA ligase
  IC50: > 2500 nM
[1]
  IC50: > 1000 nM
[2]
  IC50: > 1000 nM
[3]
  IC50: > 1000 nM
[4]
  IC50: > 1000 nM
[5]
  IC50: > 1000 nM

## CC(C)(C)c1ccc(O)c(CNC2CCCCC2)c1
Proline--tRNA ligase
  IC50: > 2500 nM
Lysine--tRNA ligase
  IC50: > 2500 nM
[1]
  IC50: > 1000 nM
[2]
  IC50: > 1000 nM
[3]
  IC50: > 1000 nM
[4]
  IC50: > 1000 nM
[5]
  IC50: > 1000 nM

## Cc1sc2ncnc(Sc3nc4ccccc4[nH]3)c2c1C
Proline--tRNA ligase
  IC50: > 2500 nM
Lysine--tRNA ligase
  IC50: > 2500 nM
[1]
  IC50: > 1000 nM
[2]
  IC50: > 1000 nM
[3]
  IC50: > 1000 nM
[4]
  IC50: > 1000 nM
[5]
  IC50: > 1000 nM

## CC1CN(C(=O)c2sc3ccccc3c2Cl)CC(C)O1 (stereo not given)
Proline--tRNA ligase
  IC50: > 2500 nM
Lysine--tRNA ligase
  IC50: > 2500 nM
[1]
  IC50: > 1000 nM
[2]
  IC50: > 1000 nM
[3]
  IC50: > 1000 nM
[4]
  IC50: > 1000 nM
[5]
  IC50: > 1000 nM

## Cc1cc(Nc2ccc(Cl)cc2)n2nc(C(F)(F)F)nc2n1
Proline--tRNA ligase
  IC50: > 2500 nM
Lysine--tRNA ligase
  IC50: > 2500 nM
[1]
  IC50: > 1000 nM
[2]
  IC50: > 1000 nM
[3]
  IC50: > 1000 nM
[4]
  IC50: > 1000 nM
[5]
  IC50: > 1000 nM

## Cc1cc(N(C)C)nc(Nc2ccc(NC(=O)Nc3ccccc3)cc2)n1
Proline--tRNA ligase
  IC50: > 2500 nM
Lysine--tRNA ligase
  IC50: > 2500 nM
[1]
  IC50: > 1000 nM
[2]
  IC50: > 1000 nM
[3]
  IC50: > 1000 nM
[4]
  IC50: > 1000 nM
[5]
  IC50: > 1000 nM

## O=C(NC1CCN(Cc2ccccc2)CC1)c1cc2nc(-c3ccc(Cl)s3)cc(C(F)(F)F)n2n1
Proline--tRNA ligase
  IC50: > 2500 nM
Lysine--tRNA ligase
  IC50: > 2500 nM
[1]
  IC50: > 1000 nM
[2]
  IC50: > 1000 nM
[3]
  IC50: > 1000 nM
[4]
  IC50: > 1000 nM
[5]
  IC50: > 1000 nM

## COc1ccc(-c2nonc2NC(=O)c2cccc(C)c2)cc1OC
Proline--tRNA ligase
  IC50: > 2500 nM
Lysine--tRNA ligase
  IC50: > 2500 nM
[1]
  IC50: > 1000 nM
[2]
  IC50: > 1000 nM
[3]
  IC50: > 1000 nM
[4]
  IC50: > 1000 nM
[5]
  IC50: > 1000 nM

## Cc1cc(C)cc(Nc2cc(C)nc3nc(C(F)(F)F)nn23)c1
Proline--tRNA ligase
  IC50: > 2500 nM
Lysine--tRNA ligase
  IC50: > 2500 nM
[1]
  IC50: > 1000 nM
[2]
  IC50: > 1000 nM
[3]
  IC50: > 1000 nM
[4]
  IC50: > 1000 nM
[5]
  IC50: > 1000 nM
